Test results taken from US20140073801A1, “PYRROLIDINE DERIVATIVES AS SELECTIVE GLYCOSIDASE INHIBITORS AND USES THEREOF” (Summit Corporation Plc, priority 2011, published 2014).

What was measured:
[1] = biological target: T1, human OGA (hOGA) (Homo sapiens, UniProt O60502); assay: Screening of inhibitor library against human OGA (single point, triplicate); type: biochemical; settings: 100 μM inhibitor concentration
T1 construct: made in house
T1 sequence (O60502 1-916): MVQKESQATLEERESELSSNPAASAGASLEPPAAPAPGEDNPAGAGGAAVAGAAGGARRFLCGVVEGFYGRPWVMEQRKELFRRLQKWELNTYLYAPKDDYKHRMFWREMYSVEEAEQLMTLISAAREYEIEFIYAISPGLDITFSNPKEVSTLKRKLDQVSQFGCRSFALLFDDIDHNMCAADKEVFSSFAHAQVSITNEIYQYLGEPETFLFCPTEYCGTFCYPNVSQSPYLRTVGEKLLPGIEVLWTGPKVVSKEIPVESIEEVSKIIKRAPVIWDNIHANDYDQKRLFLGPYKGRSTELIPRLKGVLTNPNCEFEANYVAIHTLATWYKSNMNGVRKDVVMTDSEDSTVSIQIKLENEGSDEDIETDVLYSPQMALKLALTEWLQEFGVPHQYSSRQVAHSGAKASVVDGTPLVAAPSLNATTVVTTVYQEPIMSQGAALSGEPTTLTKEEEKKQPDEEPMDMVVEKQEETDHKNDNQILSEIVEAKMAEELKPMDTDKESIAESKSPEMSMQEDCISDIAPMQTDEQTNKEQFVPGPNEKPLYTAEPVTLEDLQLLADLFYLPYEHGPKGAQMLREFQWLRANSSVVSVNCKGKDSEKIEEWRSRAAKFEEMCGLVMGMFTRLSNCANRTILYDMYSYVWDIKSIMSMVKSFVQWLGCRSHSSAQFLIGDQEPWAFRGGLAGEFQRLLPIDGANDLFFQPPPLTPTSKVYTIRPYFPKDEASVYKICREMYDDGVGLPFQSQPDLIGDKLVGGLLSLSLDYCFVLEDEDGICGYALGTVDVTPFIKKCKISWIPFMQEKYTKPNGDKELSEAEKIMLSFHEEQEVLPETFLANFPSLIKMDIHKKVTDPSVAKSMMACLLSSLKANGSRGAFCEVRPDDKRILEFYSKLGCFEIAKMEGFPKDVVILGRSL
Experimental: Expressed and purified human OGA (hOGA) was screened against a library of compounds (compounds stored in 100% DMSO at a concentration of 10 mM) according to a procedure modified from that detailed in Biochem. J. 2009, 420, 221-227 and using the reaction reagents set out in the Table (below). The modification to the published protocol was that an emission wavelength of 450 nm was used rather than […]. Assays were run at singlepoint in triplicate. Inhibitors for further evaluation were selected based on an average observed inhibition greater than 50%.

[2] = system: human β-hexosaminidase [human placenta] (HexA/B); assay: Determination of IC50 values for inhibition of human β-hexosaminidase; type: biochemical; settings: ratio
Outline: (§1)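 Inhibitor titrated from 300 μM to 0.003 μM or 100 μM to 0.001 μM. IC50 values come from curve fits, and selectivity is IC50(β-hexosaminidase)/IC50(human OGA).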

[3] = biological target: T2, human β-hexosaminidase [human placenta] (HexA/B); assay: as above; type: biochemical; settings: human β-hexosaminidase, human placenta; room temperature, thirty minutes
T2 construct: other: human β-hexosaminidase, human placenta; room temperature, thirty minutes
Outline: as §1

[4] = biological target: T3, human OGA (Homo sapiens, UniProt O60502); assay: Determination of IC50 values for inhibition of human OGA; type: biochemical
T3 construct: made in house
T3 sequence (O60502 1-916): T1 sequence (O60502 1-916)
Experimental: Inhibitors identified from the screen described in Example 1 were evaluated for IC50 using a procedure adapted from Biochem. J. 2009, 420, 221-227. IC50 determination was carried out using a range of inhibitor concentrations from 300 μM to 0.003 μM or 100 μM to 0.001 μM. IC50 values were calculated using XLFit 4.

[5] = biological target: T3, human OGA; assay: Determination of Ki values for inhibition of human OGA (4MU-GlcNAc substrate); type: biochemical; settings: 2 nM human OGA, McIlvaine buffer pH 7.4, one hour
Experimental: Enzymatic reactions were carried out in McIlvaine buffer (0.2M Na2PO4, 0.1M citric acid; pH 7.4) using 2 nM human OGA and 4MU-GlcNAc as substrate in the presence of inhibitor. For the Ki of AXX inhibitor concentrations were 0, 20, 40, 80, 160 and 320 nM [for the Ki determination of other compounds either the same concentrations or similar concentrations were used] and 4MU-GlcNAc concentrations were 50, 100, 200, 400, 800, 1600, and 3200 μM. Reactions were left for one hour. […] Modes of inhibition were determined by Lineweaver-Burke analysis and Ki values were determined using GraphPad 5 Prism non-linear regression analysis.

[6] = system: O-GlcNAc modified proteins in PC-12 cells or SH-SY5Y cells; assay: Western blot analyses of O-GlcNAc modified proteins in cells; type: cell-based; settings: for EC50: western blot, cells dosed 4 hours at 37° C., cell line not given
Experimental: PC-12 cells or SH-SY5Y cells were dosed with the test compound or vehicle control at 37° C. for 4 hours. Once the incubation was completed the media was removed and cells were lysed. Extracted protein was then used for Western blot analysis using standard molecular biology techniques. The resulting membrane was probed with antibodies specific for tau phosphorylation sites (pSer396, pSer422, pThr231, pSer262) or with antibodies specific for O-GlcNAcylation sites (RL-2 or CTD110.6). The primary antibodies were visualised using appropriate secondary conjugated with the fluorophores Alexa 532 or Alexa 488. Actin was visualised using a FITC conjugated primary antibody. Relative quantification was measured in relation to the actin signal using Image lab software (BRL). Marked increases in O-GlcNAcylated proteins within the cells were observed as compared to controls when cells were dosed with test compound.

## CCCCNC(=O)C[C@H]1N[C@H](CO)[C@@H](O)[C@H]1O [Compound A002, N-butyl-2-((2R,3S,4R,5R)-3,4-dihydroxy-5-(hydroxymethyl)pyrrolidin-2-yl)acetamide]
[1]
  inhibition at 100 µM: 52.8%
[2]
  Selectivity: IC50(human β-hexosaminidase)/IC50(Human OGA): >4
[3]
  IC50: > 300000 nM
[4]
  IC50: 75000 nM

## CCCNC(=O)C[C@@H]1[C@H](O)[C@H](O)[C@@H](CO)N1CCCCc1ccccc1 [Compound A022, 2-((2R,3S,4R,5R)-3,4-dihydroxy-5-(hydroxymethyl)-1-(4-phenylbutyl)pyrrolidin-2-yl)-N-propylacetamide]
[5]
  Ki: 72 nM
[2]
  Selectivity: IC50(human β-hexosaminidase)/IC50(Human OGA): >28571
[3]
  IC50: > 300000 nM
[6]
  EC50: 1230 nM
[4]
  IC50: 11 nM

## CNC(=O)C[C@@H]1[C@H](O)[C@H](O)[C@@H](CO)N1CCCCC(C)C [Compound A021, 2-((2R,3S,4R,5R)-3,4-dihydroxy-5-(hydroxymethyl)-1-(5-methylhexyl)pyrrolidin-2-yl)-N-methylacetamide]
[5]
  Ki: 41 nM
[2]
  Selectivity: IC50(human β-hexosaminidase)/IC50(Human OGA): >37037
[3]
  IC50: > 300000 nM
[6]; SH-SY5Y cells, 4 hours
  cellular levels of O-GlcNAc modified proteins relative to vehicle (FIG. 2): increase
[6]
  EC50: 604 nM
[4]
  IC50: 8 nM

## CCCCCCCCCN1[C@H](CC(=O)NCCCC)[C@H](O)[C@H](O)[C@H]1CO [Compound A001, N-butyl-2-((2R,3S,4R,5R)-3,4-dihydroxy-5-(hydroxymethyl)-1-nonylpyrrolidin-2-yl)acetamide]
[1]
  inhibition at 100 µM: 89.6%
[2]
  Selectivity: IC50(human β-hexosaminidase)/IC50(Human OGA): >5
[3]
  IC50: > 300000 nM
[4]
  IC50: 58000 nM

## CNC(=O)C[C@@H]1[C@H](O)[C@H](O)[C@@H](CO)N1CCCc1ccccc1 [Compound A016, 2-((2R,3S,4R,5R)-3,4-dihydroxy-5-(hydroxymethyl)-1-(3-phenylpropyl)pyrrolidin-2-yl)-N-methylacetamide]
[5]
  Ki: 11 nM
[2]
  Selectivity: IC50(human β-hexosaminidase)/IC50(Human OGA): >18000
[3]
  IC50: 54000 nM
[6]; SH-SY5Y cells, 4 hours
  cellular levels of O-GlcNAc modified proteins relative to vehicle (FIG. 2): increase
[6]
  EC50: 255 nM
[4]
  IC50: < 3 nM

## CCCCCCN1[C@H](CC(=O)NC)[C@H](O)[C@H](O)[C@H]1CO [Compound A012, 2-((2R,3S,4R,5R)-1-hexyl-3,4-dihydroxy-5-(hydroxymethyl)pyrrolidin-2-yl)-N-methylacetamide]
[5]
  Ki: 70 nM
[2]
  Selectivity: IC50(human β-hexosaminidase)/IC50(Human OGA): >6085
[3]
  IC50: > 300000 nM
[6]; SH-SY5Y cells, 4 hours
  cellular levels of O-GlcNAc modified proteins relative to vehicle (FIG. 2): increase
[6]; SH-SY5Y cells, 4 hours, varying concentrations
  cellular levels of O-GlcNAc modified proteins relative to vehicle (FIG. 1): increase
[6]
  EC50: 656 nM
[4]
  IC50: 49 nM

## CNC(=O)C[C@@H]1[C@H](O)[C@H](O)[C@@H](CO)N1CCCCCNS(=O)(=O)c1ccc(-c2ccccc2)cc1 [Compound A066, 2-((2R,3S,4R,5R)-1-(5-([1,1′-biphenyl]-4-ylsulfonamido)pentyl)-3,4-dihydroxy-5-(hydroxymethyl)pyrrolidin-2-yl)-N-methylacetamide]
[5]
  Ki: 3 nM
[2]
  Selectivity: IC50(human β-hexosaminidase)/IC50(Human OGA): >3633
[3]
  IC50: 10900 nM
[6]
  EC50: 20 nM
[4]
  IC50: < 3 nM

## CCCCNC(=O)C[C@@H]1[C@H](O)[C@H](O)[C@@H](CO)N1CCCCCCCCCO [Compound A003, N-butyl-2-((2R,3S,4R,5R)-3,4-dihydroxy-5-(hydroxymethyl)-1-(9-hydroxynonyl)pyrrolidin-2-yl)acetamide]
[1]
  inhibition at 100 µM: 82.8%
[2]
  Selectivity: IC50(human β-hexosaminidase)/IC50(Human OGA): >4
[3]
  IC50: > 300000 nM
[4]
  IC50: 74600 nM
